Structures are written as SMILES. Where two headings read alike, the source gives them in different places.

For assay [1], the target named is T1, SOS^cat catalyzed nucleotide exchange of H-Ras-GDP (Homo sapiens, UniProt P01112, G12V).
T1 construct: made in house; host or cells: E. coli BL21 (DE3)
Put plainly: SOS-mediated nucleotide exchange (MANT-GMPPNP fluorescence). It is filed as biochemical. Particulars: 25 μM of R4000, 1 μM H-Ras-GDP, 2 μM SOS^cat. On the procedure:
A sequence encoding the Ras exchanger motif and Cdc25 domains of human guanine nucleotide exchange factor SOS1 (amino acids 564-1049, designated as SOS^cat hereafter) was synthesized at GeneArt (Life Technologies, Carlsbad, Calif.) and subcloned into the pET28a expression vector (Novagen, Darmstadt, Germany) for expression in E. coli. The identity of the expression construct was confirmed by DNA sequencing. The plasmid encoding SOS^cat was transformed into BL21 (DE3). Cells were grown at 37° C. to an absorbance of 0.5 (OD600) in LB media containing 25 μg/mL of kanamycin and then transferred to 20° C. prior to induction with 0.1 mM IPTG. Cells were harvested 15 hours after induction and the pellet was lysed with B-PER Bacteria Extraction Reagent (Pierce/Thermo Scientific, Rockford, Ill.) containing EDTA-free protease inhibitors. […]
The SOS^cat protein was then dialysed into a buffer containing 25 mM Tris-HCl, pH 7.5, 150 mM NaCl, 5 mM MgCl2, and 1 mM DTT and stored at −80° C. […] Changes in fluorescence were measured by a fluorescence spectrometer (SpectraMax M3; Molecular Devices) in a black 96 half-area well plate (Corning 3686). Fluorescence was excited at λ=370 nm and emission was monitored at λ=450 nm every 20 s for over 30 minutes at 22° C. The nucleotide exchange rates were expressed as Vmax (milli-units per minute).

The target in the next assay is T2, K-Ras G12D (Homo sapiens, UniProt P01116, G12D).
T2 construct: For K-Ras, the construct was full-length; made in house
The assay can be described thus: Surface plasmon resonance (SPR) binding to immobilized K-Ras. Particulars: for Kd / kd / kon: 25° C.; for kon: read-out: ka. As for the experimental part: Surface Plasmon Resonance (SPR) experiments were conducted at 25° C. using the ProteOn XPR36 system from BioRad Laboratories, Inc (Hercules, Calif.). […] Kinetic characterization of cyclomimetic binding was performed to determine kon, koff, and Kd. […] was co-injected with RAF-RBD to evaluate competitive binding. Data analysis was performed using BioRad ProteOn Manager software.

For the compound `CCC[C@H](NC(C)=O)C(=O)N[C@H]1CSCc2cccc(c2)CSC[C@@H](C(N)=O)NC(=O)CN(C)C(=O)[C@H](Cc2ccc(F)cc2)N(C)C(=O)[C@H](Cc2ccc(O)cc2)NC(=O)[C@H](Cc2c[nH]c3ncccc23)NC(=O)[C@H](c2ccccc2)NC(=O)[C@H](C)N(C)C(=O)[C@H](Cc2cnc[nH]2)NC(=O)[C@H](CCCCN)NC(=O)[C@H](C(C)(C)C)NC(=O)[C@H](Cc2ccc(O)cc2)NC1=O` (relative stereo) [Compound R4000, ACE-NVA-CYS*-TYR-TBG-LYS-HIS-NMA-PHG-7AW-TYR-MFF-SAR-CYS*-NH2], the “effect on the rate of SOS catalyzed nucleotide exchange” value in assay [1] is given as “does not effect the rate of exchange”. In addition, on K-Ras G12D (K-Ras G12D loaded with GDP), the Kd was found to be 4.4 nM, the kd turned out to be 0.003 s⁻¹ and the kon was determined as 680000 M⁻¹ s⁻¹. Further, on K-Ras G12D (K-Ras G12D loaded with GMPPNP), the Kd is 2.8 nM, the kd was 0.0016 s⁻¹ and the kon worked out at 570000 M⁻¹ s⁻¹. Moreover, at K-Ras G12D (R4000 co-injected with RAF-RBD, FIG. 7A), the “competitive binding on co-injection with RAF-RBD” value is “additive signals”.

The values above are taken from patent publication US10954287B2, “Ras binding peptides and methods of use” (Ra Pharmaceuticals, Inc., priority 2016, dated 2021).
